In US20050048508A1, “Trehalose receptor and method for detecting trehalose with the same” (KABUSHIKI KAISHA HAYASHIBARA SEIBUTSU KAGAKU KENKYUJO, priority 2002, published 2005):

Biological target: T1, T1R3 with G protein α-subunits (α15 and α16/Z chimeric protein) (Mus musculus, UniProt Q925D8, I706N)
T1 construct: expressed in transfected cells; host or cells: 293 cells, RCB 1637 (human embryonic kidney)
T1 sequence (Q925D8 21-858 I706N): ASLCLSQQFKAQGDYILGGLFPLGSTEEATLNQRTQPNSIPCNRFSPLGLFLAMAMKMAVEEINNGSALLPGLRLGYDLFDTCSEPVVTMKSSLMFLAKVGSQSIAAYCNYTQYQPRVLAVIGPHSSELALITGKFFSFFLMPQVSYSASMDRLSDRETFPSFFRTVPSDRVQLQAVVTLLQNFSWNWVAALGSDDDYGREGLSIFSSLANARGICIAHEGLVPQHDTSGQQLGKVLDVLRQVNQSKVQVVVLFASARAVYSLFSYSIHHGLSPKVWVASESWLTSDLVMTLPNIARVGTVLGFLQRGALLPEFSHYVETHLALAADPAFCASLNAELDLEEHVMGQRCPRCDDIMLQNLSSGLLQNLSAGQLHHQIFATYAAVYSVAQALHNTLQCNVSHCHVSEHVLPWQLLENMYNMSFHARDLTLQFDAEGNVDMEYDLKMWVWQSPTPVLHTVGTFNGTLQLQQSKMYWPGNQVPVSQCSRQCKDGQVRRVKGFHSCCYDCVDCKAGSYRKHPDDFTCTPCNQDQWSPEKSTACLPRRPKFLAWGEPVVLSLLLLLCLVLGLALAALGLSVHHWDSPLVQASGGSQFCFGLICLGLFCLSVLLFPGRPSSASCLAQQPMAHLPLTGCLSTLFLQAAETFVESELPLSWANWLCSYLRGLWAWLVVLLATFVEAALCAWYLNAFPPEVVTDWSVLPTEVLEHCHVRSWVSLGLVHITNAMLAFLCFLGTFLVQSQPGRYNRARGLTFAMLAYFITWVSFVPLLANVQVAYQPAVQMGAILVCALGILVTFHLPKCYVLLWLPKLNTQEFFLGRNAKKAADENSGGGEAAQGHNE
Assay: Intracellular calcium ion assay, 293 cells coexpressing G protein α-subunits and T1R3 (trehalose receptor)
Assay type: cell-based
Experimental: The coexpression vector for the G protein α-subunit α15 and the G protein α16/Z chimeric protein (hereinafter designated as “G protein α-subunits”) obtained in Example 1-3 was gene transferred to 293 cells, RCB 1637, a human embryonic kidney cell line, available from the Riken Bioresource Center, Ibaraki, Japan, by conventional lipofection. The gene transferred cells were suspended in Dulbecco's Modified Eagle's Medium (D-MEM) supplemented with 1 mg/L of “PUROMYCIN”, a trade mane of puromycin commercialized by Edge Biosystems, MD, USA, and 10% (v/v) of fetal calf serum to give a cell density of 2×10^6 cells/ml and cultured in a plastic petri dish for cell culture. After 10 to 14 days of incubation, a puromycin-resistant cell colony was collected and confirmed its production of the G protein α-subunit proteins with an index of their mRNA level by conventional RT-PCR. Thus, a cell line capable of expressing the G protein α-subunit proteins was established. To the cells were gene transferred an expression vector for the sweet taste receptor protein T1R1, T1R2, or T1R3 in Example 2-2; or a coexpression vector for a pair of T1R1 and T1R2, T1R1 and T1R3, or T1R2 and T1R3 by conventional lipofection. The resulting cells were suspended in D-MEM supplemented with 1 mg/L of “PUROMYCIN”, 500 mg/L of “GENETICIN”, and 10% (v/v) of fetal calf serum and cultured in a plastic petri dish for cell culture. After 10 to 14 days of incubation, a cell colony resistant to both of the above drugs was collected and confirmed that the transferred gene had been expressed intracellularly as expected by conventional RT-PCR at a mRNA level. Thus, a cell, which had coexpressed the desired G proteins and sweet taste receptors, was obtained. As a control, a cell, into which an expression vector with no G protein α-subunit protein gene or sweet taste receptor protein gene, was prepared and used.
The captioned reactivity test was conducted according to a conventional intracellular calcium ion assay: 293 Cells prepared in Example 3, capable of coexpressing the G protein α-subunits and the sweet taste receptor(s), were cultured in a plastic petri dish for cell culture until reaching its confluent phase. Thereafter, the cells were detached from the inner surface of the petri dish with a 0.05% (v/v) trypsin solution and a 0.53 mM EDTA solution, suspended in D-MEM supplemented with 10% (v/v) fetal calf serum to give a cell density of 1×10^6 cells/ml, and allowed to intake “FLUO-4. AM”, a reagent for detecting intracellular calcium ion commercialized by Molecular Probes Inc., Ore., USA, by adding to the cell suspension to give a final concentration of 2 μM and incubating the cells at 37 ° C. for 30 to 90 min. The resulting cells were washed with a buffer for detecting calcium ion, which contained 10 mM HEPES (pH 7.4), 130 mM sodium chloride, 5.4 mM potassium chloride, 2 mM calcium chloride, 1 mM magnesium chloride, 5.5 mM D-glucose, 0.1% (v/v) calf serum albumin, and 1 mM sodium pyruvate to remove the reagent remained extracellularly; suspended in a fresh preparation of the same buffer to give a cell density of 2.67 ×10^7 cells/ml; filtered with a membrane with a pore size of 100 μm mesh; and allowed to stand at 25° C. for 30 min. Two milliliters of the resultant cell suspension was injected into a glass cuvette, commercialized by Hitachi, Ltd., Tokyo, Japan, and analyzed on “HITACHI 650-40”, a fluorescence spectrophotometer commercialized by Hitachi, Ltd., Tokyo, Japan. […]

[1] = 293 cells: T1R3 + G protein α-subunits, 0.67 ml of 1 M saccharide solution added to 2 ml cell suspension, FLUO-4 AM
[2] = Table 4: sweet taste substances on cells coexpressing G protein α-subunits and T1R3, measured similarly as in Example 4

SMILES	Influx of calcium ion [1]	Influx of calcium ion (293 cells: T1R3 + G protein α-subunits, 0.67 ml of 1 M saccharide solution added to 2 ml cell suspension, FLUO-4 AM, listed as trehalose)	Influx of calcium ion [2]
OC[C@H]1O[C@H](O[C@H]2O[C@H](CO)[C@@H](O)[C@H](O)[C@H]2O)[C@H](O)[C@@H](O)[C@@H]1O [Trehalose]	Positive	reacted	Positive
OC[C@H]1O[C@@](CO)(O[C@H]2O[C@H](CO)[C@@H](O)[C@H](O)[C@H]2O)[C@@H](O)[C@@H]1O [Sucrose, reference compound]	Negative	–	Negative
